Test results taken from publication PMC9120017, “Inhibition mechanism of the chloride channel TMEM16A by the pore blocker 1PBC” (Nature Communications, 2022).
Where two headings read alike, the source gives them in different places.

Molecular target: T1, mouse TMEM16B (Mus musculus, UniProt Q8CFW1)
T1 construct: expressed in transfected cells; host or cells: HEK293T
T1 sequence (Q8CFW1 1-1002): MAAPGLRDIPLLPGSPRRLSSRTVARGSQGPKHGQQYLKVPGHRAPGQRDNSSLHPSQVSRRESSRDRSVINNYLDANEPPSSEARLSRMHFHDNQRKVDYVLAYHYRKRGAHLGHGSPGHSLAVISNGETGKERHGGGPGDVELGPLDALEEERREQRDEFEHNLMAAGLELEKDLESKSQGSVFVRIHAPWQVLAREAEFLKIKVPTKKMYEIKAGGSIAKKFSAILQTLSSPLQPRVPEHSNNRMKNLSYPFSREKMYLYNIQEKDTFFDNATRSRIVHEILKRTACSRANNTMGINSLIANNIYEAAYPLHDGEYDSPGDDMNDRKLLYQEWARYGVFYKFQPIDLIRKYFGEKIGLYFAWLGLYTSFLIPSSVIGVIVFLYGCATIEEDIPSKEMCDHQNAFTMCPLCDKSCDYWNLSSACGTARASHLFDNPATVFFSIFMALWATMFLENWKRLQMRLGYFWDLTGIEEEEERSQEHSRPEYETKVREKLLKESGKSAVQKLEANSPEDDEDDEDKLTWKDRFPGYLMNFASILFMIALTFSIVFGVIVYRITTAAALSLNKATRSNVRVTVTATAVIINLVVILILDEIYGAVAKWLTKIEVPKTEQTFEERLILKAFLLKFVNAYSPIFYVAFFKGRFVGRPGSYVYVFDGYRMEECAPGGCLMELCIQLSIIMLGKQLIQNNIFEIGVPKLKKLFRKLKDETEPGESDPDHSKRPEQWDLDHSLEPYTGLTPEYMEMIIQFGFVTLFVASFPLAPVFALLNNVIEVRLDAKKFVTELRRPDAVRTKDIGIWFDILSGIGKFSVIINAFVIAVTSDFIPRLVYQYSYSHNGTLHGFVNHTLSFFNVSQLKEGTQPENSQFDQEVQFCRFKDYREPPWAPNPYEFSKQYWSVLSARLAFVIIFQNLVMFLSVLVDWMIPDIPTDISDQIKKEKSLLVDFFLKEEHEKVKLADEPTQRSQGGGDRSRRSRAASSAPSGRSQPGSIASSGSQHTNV
Assay: Inside-out patch recording of 1PBC block, TMEM16B
Type: cell-based
Settings: 15 µM Ca2+; for remaining activity at 3 µM: 3 µM 1PBC; for remaining activity at 3 µM / remaining activity at 10 µM / remaining activity at 30 µM / remaining activity at 100 µM: read-out: I/Imax; for remaining activity at 10 µM: 10 µM 1PBC; for remaining activity at 30 µM: 30 µM 1PBC; for remaining activity at 100 µM: 100 µM 1PBC
Experimental: HEK293T cells (ATCC CRL-1573) were maintained in Dulbecco’s modified Eagle’s medium (DMEM; Sigma-Aldrich) supplemented with 10 U ml^−1 penicillin, 0.1 mg ml^−1 streptomycin (Sigma-Aldrich), 2 mM L-glutamine (Sigma-Aldrich), and 10% FBS (Sigma-Aldrich) in a humidified atmosphere containing 5% CO2 at 37 °C. HEK293S GnTI^− cells (ATCC CRL-3022) were maintained in HyClone HyCell TransFx-H medium (GE Healthcare) supplemented with 10 U ml^−1 penicillin, 0.1 mg ml^−1 streptomycin, 4 mM L-glutamine, 0.15% poloxamer 188 (Sigma-Aldrich), and 1% FBS in an atmosphere containing 5% CO2 at 185 rpm at 37 °C. The ac splice variant of mouse TMEM16A (UniProt ID: Q8BHY3), mouse TMEM16B (UniProt ID: Q8CFW1), or mouse TMEM16F (UniProt ID: Q6P9J9) bearing a 3C cleavage site, a Venus YFP, a Myc tag, and a Streptavidin-binding peptide (SBP) downstream of the open reading frame in a modified pcDNA3.1 vector (Invitrogen) were used as described previously[21],[31]. Mutations were introduced using a modified QuikChange method[58] and were verified by sequencing.
HEK293T cells were transfected with 3–4 μg DNA per 6 cm Petri dish using the calcium phosphate co-precipitation method and were used within 24–96 h after transfection. Recordings were performed on inside-out patches excised from HEK293T cells expressing the construct of interest. Patch pipettes were pulled from borosilicate glass capillaries (O.D. 1.5 mm, I.D. 0.86 mm, Sutter Instrument) and were fire-polished with a microforge (Narishige) before use. Pipette resistance was typically 3–8 MΩ when filled with the recording solutions detailed below. Seal resistance was typically 4 GΩ or higher. Voltage-clamp recordings were made using Axopatch 200B, Digidata 1550, and Clampex 10.7 (Molecular Devices). Analog signals were filtered with the in-built 4-pole Bessel filter at 10 kHz and were digitized at 20 kHz. Solution exchange was achieved using a gravity-fed system through a theta glass pipette mounted on an ultra-fast piezo-driven stepper (Siskiyou). […] All recordings were performed at 20 °C.
A symmetrical ionic condition was used throughout. Stock solution with Ca^2+-EGTA contained 150 mM NaCl, 5.99 mM Ca(OH)2, 5 mM EGTA, and 10 mM HEPES at pH 7.40. Stock solution with EGTA contained 150 mM NaCl, 5 mM EGTA, and 10 mM HEPES at pH 7.40. Free Ca^2+ concentrations were adjusted by mixing the stock solutions at the required ratios calculated using the WEBMAXC program (http://web.stanford.edu/~cpatton/webmaxcS.htm). Patch pipettes were filled with the stock solution with Ca^2+-EGTA, which has a free Ca^2+ concentration of 1 mM. 1PBC (ChemBridge) stock was reconstituted in anhydrous DMSO (Sigma-Aldrich) at 100 mM and stored at −20 °C. Working solutions with 1PBC were prepared by serial dilution. Unless otherwise stated, experiments were performed at a saturating Ca^2+ concentration as shown in Supplementary Table 1 and the primary data were corrected for current rundown as described previously[21],[25].
Concentration-response relations, obtained from the ratio of the I-V plots before and after the application of the blocker, were fitted to the Hill equation,1 I/Imax=1/1+IC50/[blocker]^h where I/Imax is the normalized current responses, IC50 defines the concentration at which inhibition is at its half-maximum, and h is the Hill coefficient.

remaining activity at 3 µM (+80 mV): 55.6%
remaining activity at 3 µM (-80 mV): 89.9%
remaining activity at 10 µM (+80 mV): 31%
remaining activity at 10 µM (-80 mV): 70.1%
Block of the channel TMEM16B: blocks
remaining activity at 30 µM (+80 mV): 16.8%
remaining activity at 30 µM (-80 mV): 43.9%
remaining activity at 100 µM (+80 mV): 7.99%
remaining activity at 100 µM (-80 mV): 20.5%
SMILES: N#Cc1c(C(F)(F)F)cc(O)n2c1nc1ccccc12 [1PBC]
